Experimental data as given in PubChem BioAssay (NCI).
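How tested: cells in 96-well plates exposed to compound for 48 hours at five concentrations. GI50 = concentration required for 50% inhibition of growth. TGI: concentration producing complete growth inhibition.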

How the values were obtained:
Test in all cases: growth of human tumour cells (NCI), 48 h
A549 NSCLC = system: A549 NSCLC
ACHN renal = system: ACHN renal
RXF 393 renal = system: RXF 393 renal
UACC-257 melanoma = system: UACC-257 melanoma
TK-10 renal = system: TK-10 renal
SK-MEL-2 melanoma = system: SK-MEL-2 melanoma
MOLT-4 leukemia = system: MOLT-4 leukemia
786-0 renal = system: 786-0 renal
MDA-N = system: MDA-N
HS 578T breast = system: HS 578T breast
LOX IMVI melanoma = system: LOX IMVI melanoma
SN12C renal = system: SN12C renal
MALME-3M melanoma = system: MALME-3M melanoma
OVCAR-3 ovarian = system: OVCAR-3 ovarian
EKVX NSCLC = system: EKVX NSCLC
T-47D breast = system: T-47D breast
RPMI-8226 leukemia = system: RPMI-8226 leukemia
NCI-H226 lung = system: NCI-H226 lung
CCRF-CEM leukemia = system: CCRF-CEM leukemia
U251 CNS = system: U251 CNS
NCI-H522 lung = system: NCI-H522 lung
DU-145 prostate = system: DU-145 prostate
PC-3 prostate = system: PC-3 prostate
NCI/ADR-RES ovarian = system: NCI/ADR-RES ovarian
NCI-H460 lung = system: NCI-H460 lung
A498 renal = system: A498 renal
NCI-H23 lung = system: NCI-H23 lung
MDA-MB-231 breast = system: MDA-MB-231 breast
HOP-92 NSCLC = system: HOP-92 NSCLC
HL-60(TB) leukemia = system: HL-60(TB) leukemia
SK-MEL-5 melanoma = system: SK-MEL-5 melanoma
SF-539 CNS = system: SF-539 CNS
CAKI-1 renal = system: CAKI-1 renal
COLO 205 colon = system: COLO 205 colon
SW-620 colon = system: SW-620 colon
SNB-19 CNS = system: SNB-19 CNS
MDA-MB-435 = system: MDA-MB-435
SK-MEL-28 melanoma = system: SK-MEL-28 melanoma
SK-OV-3 ovarian = system: SK-OV-3 ovarian
HOP-62 NSCLC = system: HOP-62 NSCLC
OVCAR-4 ovarian = system: OVCAR-4 ovarian
HT29 colon = system: HT29 colon
SF-295 CNS = system: SF-295 CNS
MCF7 breast = system: MCF7 breast
SF-268 CNS = system: SF-268 CNS
HCT-15 colon = system: HCT-15 colon
SNB-75 CNS = system: SNB-75 CNS
OVCAR-5 ovarian = system: OVCAR-5 ovarian
OVCAR-8 ovarian = system: OVCAR-8 ovarian
IGROV1 ovarian = system: IGROV1 ovarian
HCT-116 colon = system: HCT-116 colon
K-562 leukemia = system: K-562 leukemia
M14 melanoma = system: M14 melanoma
HCC-2998 colon = system: HCC-2998 colon
UO-31 renal = system: UO-31 renal
SR leukemia = system: SR leukemia
KM12 colon = system: KM12 colon
UACC-62 melanoma = system: UACC-62 melanoma
BT-549 breast = system: BT-549 breast

O=C1c2cc3c(cc2CC12Cc1ccccc1C2)CCC3
TGI (A549 NSCLC): > 100 µM | TGI (ACHN renal): 97.7 µM | TGI (RXF 393 renal): 67.2 µM | TGI (UACC-257 melanoma): 54.4 µM | TGI (TK-10 renal): > 100 µM | TGI (SK-MEL-2 melanoma): 51.8 µM | TGI (MOLT-4 leukemia): 54.5 µM | TGI (786-0 renal): 64.8 µM | TGI (MDA-N): 86.8 µM | TGI (HS 578T breast): > 100 µM | TGI (LOX IMVI melanoma): 36 µM | TGI (SN12C renal): > 100 µM | TGI (MALME-3M melanoma): 71.5 µM | TGI (OVCAR-3 ovarian): > 100 µM | TGI (EKVX NSCLC): > 100 µM | TGI (T-47D breast): > 100 µM | TGI (RPMI-8226 leukemia): 68.2 µM | TGI (NCI-H226 lung): 73.8 µM | TGI (CCRF-CEM leukemia): 98.3 µM | TGI (U251 CNS): > 100 µM | TGI (NCI-H522 lung): 93.3 µM | TGI (DU-145 prostate): > 100 µM | TGI (PC-3 prostate): > 100 µM | TGI (NCI/ADR-RES ovarian): 76.8 µM | TGI (NCI-H460 lung): > 100 µM | TGI (A498 renal): > 100 µM | TGI (NCI-H23 lung): > 100 µM | TGI (MDA-MB-231 breast): 66.7 µM | TGI (HOP-92 NSCLC): 64.3 µM | TGI (HL-60(TB) leukemia): 81.6 µM | TGI (SK-MEL-5 melanoma): 32.2 µM | TGI (SF-539 CNS): 93.2 µM | TGI (CAKI-1 renal): 75.1 µM | TGI (COLO 205 colon): 48.5 µM | TGI (SW-620 colon): > 100 µM | TGI (SNB-19 CNS): > 100 µM | TGI (MDA-MB-435): 73.1 µM | TGI (SK-MEL-28 melanoma): > 100 µM | TGI (SK-OV-3 ovarian): > 100 µM | TGI (HOP-62 NSCLC): 92 µM | TGI (OVCAR-4 ovarian): > 100 µM | TGI (HT29 colon): 50.5 µM | TGI (SF-295 CNS): > 100 µM | TGI (MCF7 breast): 54.6 µM | TGI (SF-268 CNS): 93.7 µM | TGI (HCT-15 colon): > 100 µM | TGI (SNB-75 CNS): 93.8 µM | TGI (OVCAR-5 ovarian): > 100 µM | TGI (OVCAR-8 ovarian): 76.7 µM | TGI (IGROV1 ovarian): > 100 µM | TGI (HCT-116 colon): 47.5 µM | TGI (K-562 leukemia): > 100 µM | TGI (M14 melanoma): 70.6 µM | TGI (HCC-2998 colon): > 100 µM | TGI (UO-31 renal): > 100 µM | TGI (SR leukemia): 74.7 µM | TGI (KM12 colon): 56.9 µM

COc1cc2c3c(n(CCCN=[N+]=[N-])c(=O)c2cc1OC)-c1ccc(F)cc1C3=O
GI50 (A549 NSCLC): 48 µM | TGI (A549 NSCLC): > 100 µM | GI50 (ACHN renal): 3.8 µM | TGI (ACHN renal): > 100 µM | GI50 (RXF 393 renal): > 100 µM | TGI (RXF 393 renal): > 100 µM | GI50 (UACC-257 melanoma): > 100 µM | TGI (UACC-257 melanoma): > 100 µM | GI50 (TK-10 renal): 73.7 µM | TGI (TK-10 renal): > 100 µM | GI50 (SK-MEL-2 melanoma): > 100 µM | TGI (SK-MEL-2 melanoma): > 100 µM | GI50 (MOLT-4 leukemia): 2.7 µM | TGI (MOLT-4 leukemia): 28.5 µM | GI50 (786-0 renal): 2.88 µM | TGI (786-0 renal): 14.7 µM | GI50 (HS 578T breast): > 100 µM | TGI (HS 578T breast): > 100 µM | GI50 (LOX IMVI melanoma): 4.04 µM | TGI (LOX IMVI melanoma): > 100 µM | GI50 (SN12C renal): 8.26 µM | TGI (SN12C renal): > 100 µM | GI50 (MALME-3M melanoma): > 100 µM | TGI (MALME-3M melanoma): > 100 µM | GI50 (OVCAR-3 ovarian): 6.11 µM | TGI (OVCAR-3 ovarian): > 100 µM | GI50 (EKVX NSCLC): 89.4 µM | TGI (EKVX NSCLC): > 100 µM | GI50 (T-47D breast): 3.92 µM | TGI (T-47D breast): > 100 µM | GI50 (RPMI-8226 leukemia): 1.7 µM | TGI (RPMI-8226 leukemia): 10.8 µM | GI50 (NCI-H226 lung): 43.2 µM | TGI (NCI-H226 lung): > 100 µM | GI50 (CCRF-CEM leukemia): 1.99 µM | TGI (CCRF-CEM leukemia): 5.79 µM | GI50 (U251 CNS): 4.6 µM | TGI (U251 CNS): 55.6 µM | GI50 (NCI-H522 lung): 4.89 µM | TGI (NCI-H522 lung): > 100 µM | GI50 (DU-145 prostate): 4.19 µM | TGI (DU-145 prostate): > 100 µM | GI50 (PC-3 prostate): 6.63 µM | TGI (PC-3 prostate): > 100 µM | GI50 (NCI/ADR-RES ovarian): 7.44 µM | TGI (NCI/ADR-RES ovarian): > 100 µM | GI50 (NCI-H460 lung): 1.87 µM | TGI (NCI-H460 lung): 13.3 µM | GI50 (UACC-62 melanoma): 5.27 µM | TGI (UACC-62 melanoma): > 100 µM | GI50 (A498 renal): 39.6 µM | TGI (A498 renal): > 100 µM | GI50 (NCI-H23 lung): 14.1 µM | TGI (NCI-H23 lung): > 100 µM | GI50 (MDA-MB-231 breast): > 100 µM | TGI (MDA-MB-231 breast): > 100 µM | GI50 (HOP-92 NSCLC): 2.27 µM | TGI (HOP-92 NSCLC): 8.15 µM | GI50 (HL-60(TB) leukemia): 44.4 µM | TGI (HL-60(TB) leukemia): > 100 µM | GI50 (SK-MEL-5 melanoma): 4.25 µM | TGI (SK-MEL-5 melanoma): 17.9 µM | GI50 (SF-539 CNS): 3.23 µM | TGI (SF-539 CNS): 12.4 µM | GI50 (CAKI-1 renal): 4.56 µM | TGI (CAKI-1 renal): > 100 µM | GI50 (COLO 205 colon): 23.8 µM | TGI (COLO 205 colon): > 100 µM | GI50 (SW-620 colon): 6.29 µM | TGI (SW-620 colon): > 100 µM | GI50 (SNB-19 CNS): 4.35 µM | TGI (SNB-19 CNS): > 100 µM | GI50 (MDA-MB-435): 38.1 µM | TGI (MDA-MB-435): > 100 µM | GI50 (SK-MEL-28 melanoma): 49.2 µM | TGI (SK-MEL-28 melanoma): > 100 µM | GI50 (SK-OV-3 ovarian): 11.6 µM | TGI (SK-OV-3 ovarian): > 100 µM | GI50 (HOP-62 NSCLC): 4.18 µM | TGI (HOP-62 NSCLC): > 100 µM | GI50 (OVCAR-4 ovarian): 55.9 µM | TGI (OVCAR-4 ovarian): > 100 µM | GI50 (HT29 colon): 12.3 µM | TGI (HT29 colon): > 100 µM | GI50 (SF-295 CNS): 2.62 µM | TGI (SF-295 CNS): 7.97 µM | GI50 (MCF7 breast): 3.78 µM | TGI (MCF7 breast): > 100 µM | GI50 (BT-549 breast): 12.4 µM | TGI (BT-549 breast): > 100 µM | GI50 (SF-268 CNS): 3.8 µM | TGI (SF-268 CNS): > 100 µM | GI50 (HCT-15 colon): 79.3 µM | TGI (HCT-15 colon): > 100 µM | GI50 (SNB-75 CNS): 21.1 µM | TGI (SNB-75 CNS): 90.2 µM | GI50 (OVCAR-5 ovarian): > 100 µM | TGI (OVCAR-5 ovarian): > 100 µM | GI50 (OVCAR-8 ovarian): 21.2 µM | TGI (OVCAR-8 ovarian): > 100 µM | GI50 (HCT-116 colon): 4.2 µM | TGI (HCT-116 colon): > 100 µM | GI50 (K-562 leukemia): 19.3 µM | TGI (K-562 leukemia): > 100 µM | GI50 (M14 melanoma): 5.16 µM | TGI (M14 melanoma): > 100 µM | GI50 (HCC-2998 colon): 16.3 µM | TGI (HCC-2998 colon): > 100 µM | GI50 (UO-31 renal): 5.14 µM | TGI (UO-31 renal): > 100 µM | GI50 (SR leukemia): 0.449 µM | TGI (SR leukemia): 2.68 µM | GI50 (KM12 colon): 41.2 µM | TGI (KM12 colon): > 100 µM
